From ChEMBL document CHEMBL3045734, “Synthesis of Mannich Bases of 2, 6-Disubstituted 2H-pyran-3(6H)-ones and their Miticidal Activity” (1994)

Assays:
Type in all cases: functional
Tetranychus urticae [1] = assay: Miticidal activity against Tetranychus urticae (two-spotted spider mite) in kidney beans assessed as mortality under greenhouse at 50 ppm at 25 +/- 2 degC measured after 48 hr of spray
Tetranychus urticae [2] = assay: Miticidal activity against Tetranychus urticae (two-spotted spider mite) in kidney beans assessed as mortality under greenhouse at 100 ppm at 25 +/- 2 degC measured after 48 hr of spray
Tetranychus urticae [3] = assay: Miticidal activity against Tetranychus urticae (two-spotted spider mite) in kidney beans assessed as mortality under greenhouse at 300 ppm at 25 +/- 2 degC measured after 48 hr of spray
Panonychus citri [4] = assay: Miticidal activity against Panonychus citri in satsuma mandr assessed as next generation adult mites under greenhouse at 300 ppm at 25 +/- 2 degC measured after 14 days of spray relative to control
Tetranychus kanzawai [5] = assay: Miticidal activity against Tetranychus kanzawai in kidney beans assessed as next generation adult mites under greenhouse at 300 ppm at 25 +/- 2 degC measured after 14 days of spray relative to control
Tetranychus urticae [6] = assay: Miticidal activity against Tetranychus urticae (two-spotted spider mite) in kidney beans assessed as next generation adult mites under greenhouse at 300 ppm at 25 +/- 2 degC measured after 14 days of spray relative to control
Panonychus citri [7] = assay: Miticidal activity against Panonychus citri in satsuma mandarin assessed as mortality under greenhouse at 50 ppm at 25 +/- 2 degC measured after 48 hr of spray
Panonychus citri [8] = assay: Miticidal activity against Panonychus citri in satsuma mandarin assessed as mortality under greenhouse at 100 ppm at 25 +/- 2 degC measured after 48 hr of spray
Panonychus citri [9] = assay: Miticidal activity against Panonychus citri in satsuma mandarin assessed as mortality under greenhouse at 300 ppm at 25 +/- 2 degC measured after 48 hr of spray
Tetranychus kanzawai [10] = assay: Miticidal activity against Tetranychus kanzawai in kidney beans assessed as mortality under greenhouse at 50 ppm at 25 +/- 2 degC measured after 48 hr of spray
Tetranychus kanzawai [11] = assay: Miticidal activity against Tetranychus kanzawai in kidney beans assessed as mortality under greenhouse at 100 ppm at 25 +/- 2 degC measured after 48 hr of spray
Tetranychus kanzawai [12] = assay: Miticidal activity against Tetranychus kanzawai in kidney beans assessed as mortality under greenhouse at 300 ppm at 25 +/- 2 degC measured after 48 hr of spray
Tetranychus urticae [13] = assay: Miticidal activity against Tetranychus urticae (two-spotted spider mite) in kidney beans assessed as mortality under greenhouse at 600 ppm at 25 +/- 2 degC measured after 48 hr of spray

Row | SMILES | mortality at 100 ppm (Tetranychus urticae [2]) | mortality at 300 ppm (Tetranychus urticae [3]) | mortality at 600 ppm (Tetranychus urticae [13]) | other results
1 | CCCCCCC1OC(OCCC)C=C(CN2CCCCC2)C1=O (centres undefined) | 100% | 100% |  | mortality at 50 ppm (Tetranychus urticae [1]): 70%
2 | CCCCCCC1OC(OC(C)C)C=C(CN2CCCCC2)C1=O (centres undefined) | 100% | 100% |  | Activity (Panonychus citri [4]): 91%; Activity (Tetranychus kanzawai [5]): 90%; Activity (Tetranychus urticae [6]): 93%; mortality at 50 ppm (Panonychus citri [7]): 88%; mortality at 100 ppm (Panonychus citri [8]): 100%; mortality at 300 ppm (Panonychus citri [9]): 100%; mortality at 50 ppm (Tetranychus kanzawai [10]): 93%; mortality at 100 ppm (Tetranychus kanzawai [11]): 100%; mortality at 300 ppm (Tetranychus kanzawai [12]): 100%; mortality at 50 ppm (Tetranychus urticae [1]): 90%
3 | COC1C=C(CN2CCC(C)CC2)C(=O)C(C2CCCCC2)O1 (centres undefined) | 60% | 85% | 100% | 
4 | COC1C=C(CN2CCCC2)C(=O)C(C2CCCCC2)O1 (centres undefined) |  |  | 68% | 
5 | CCCCCCC1OC(OC(C)(C)C)C=C(CN2CCCCC2)C1=O (centres undefined) | 75% | 95% |  | mortality at 50 ppm (Tetranychus urticae [1]): 50%
6 | CCCCCCC1OC(OCCCC)C=C(CN2CCCCC2)C1=O (centres undefined) | 75% | 100% |  | mortality at 50 ppm (Tetranychus urticae [1]): 40%
7 | CCCCCCC1OC(OC)C=C(CN2CCCC(C)C2)C1=O (centres undefined) | 55% | 85% | 100% | 
8 | CCCCCCC1OC(OC)C=C(CN(CC)CC)C1=O (centres undefined) |  |  | 60% | 
9 | CCCCCCC1OC(OC)C=C(CN2CCOCC2)C1=O (centres undefined) |  | 65% | 90% | 
10 | CCCCN(CCCC)CC1=CC(OC)OC(C2CCCCC2)C1=O (centres undefined) |  |  | 70% | 
11 | CCCCCCC1OC(OC)C=C(CN(CCCC)CCCC)C1=O (centres undefined) |  |  | 75% | 
12 | CCCCCCC1OC(OC)C=C(CN2CCCC2)C1=O (centres undefined) |  |  | 70% | 
13 | CCCCCCC1OC(Oc2ccccc2)C=C(CN2CCCCC2)C1=O (centres undefined) | 20% | 60% |  | 
14 | CCCCCCC1OC(OC)C=C(CN2CCC(C)CC2)C1=O (centres undefined) | 70% | 95% | 100% | 
15 | CCCCCCCCCCC1OC(OC)C=C(CN2CCCCC2)C1=O (centres undefined) | 20% | 70% | 95% | 
16 | CCCCCCOC1C=C(CN2CCCCC2)C(=O)C(CCCCCC)O1 (centres undefined) | 70% | 85% |  | mortality at 50 ppm (Tetranychus urticae [1]): 45%
17 | CCCCCCC1OC(OCC)C=C(CN2CCCCC2)C1=O (centres undefined) | 70% | 100% |  | mortality at 50 ppm (Tetranychus urticae [1]): 40%

Row | SMILES | mortality at 100 ppm (Tetranychus urticae [2]) | mortality at 300 ppm (Tetranychus urticae [3]) | mortality at 600 ppm (Tetranychus urticae [13]) | other results
18 | CCCCCCC1OC(OC)C=C(CN2CCCCC2C)C1=O (centres undefined) |  | 60% | 90% | 
19 | CCCCCCC1OC(OCC(C)C)C=C(CN2CCCCC2)C1=O (centres undefined) | 92% | 100% |  | mortality at 50 ppm (Tetranychus urticae [1]): 75%
20 | COC1C=C(CN2CCCCC2)C(=O)C(c2ccccc2)O1 (centres undefined) |  |  | 30% | 
21 | CCCCCCCCC1OC(OC)C=C(CN2CCCCC2)C1=O (centres undefined) | 50% | 90% | 100% | 
22 | COC1C=C(CN2CCCCC2C)C(=O)C(C2CCCCC2)O1 (centres undefined) |  | 55% | 80% | 
23 | COC1C=C(CN2CCCCC2)C(=O)CO1 (centres undefined) |  | 10% | 70% | 
24 | CCCCCCC1OC(OCc2ccccc2)C=C(CN2CCCCC2)C1=O (centres undefined) | 40% | 55% |  | 
25 | CCCCCCCCCCCCC1OC(OC)C=C(CN2CCCCC2)C1=O (centres undefined) |  | 65% | 90% | 
26 | CCCCCCC1OC(OC)C=C(CN2CCCCC2)C1=O (centres undefined) | 77% | 100% | 100% | mortality at 50 ppm (Tetranychus urticae [1]): 40%
27 | CCN(CC)CC1=CC(OC)OC(C2CCCCC2)C1=O (centres undefined) |  |  | 60% | 
28 | COC1C=C(CN2CCCCC2)C(=O)C(C2CCCCC2)O1 (centres undefined) | 68% | 100% | 100% | 
29 | CCCCCCC1OC(OC2CCCCC2)C=C(CN2CCCCC2)C1=O (centres undefined) | 82% | 100% |  | mortality at 50 ppm (Tetranychus urticae [1]): 40%
30 | COC1C=C(CN2CCCC(C)C2)C(=O)C(C2CCCCC2)O1 (centres undefined) | 65% | 83% | 100% | 
31 | CCCCC1OC(OC)C=C(CN2CCCCC2)C1=O (centres undefined) | 10% | 87% | 90% | 
32 | CCCCCC1OC(OC)C=C(CN2CCCCC2)C1=O (centres undefined) | 20% | 95% | 100% | 
33 | COC1C=C(CN2CCOCC2)C(=O)C(C2CCCCC2)O1 (centres undefined) |  | 65% | 90% | 
34 | CCCC1OC(OC)C=C(CN2CCCCC2)C1=O (centres undefined) |  | 20% | 90% | 
